What was measured:
Na/K-ATPase pump = assay: cell-based or functional assay
Na/K APTase pump [1] = assay: Na/K APTase pump activity by 86Rb+ uptake in RBL-2H3 cells; format: cell-based; details: 10-20 μg/ml TCTP added, 86Rb+ tracer, versus control without TCTP, FIG. 1a
Method: The Na/K APTase pump inhibitory activity of the TCTP protein contained in the inventive composition was examined. As it was already known that TCTP interacts with the Na/K APTase pump, a test was performed to examine if the interaction has any effect on the activity of the Na/K APTase pump inhibitory activity.
RBL-2H3 cells were cultured at a suitable density and washed three times with Krebs-Ringer buffer (KRP, 140 mM NaCl, 5 mM KCl, 10 mM Na2HPO4, 1 mM MgSO4, 1.4 mM CaCl2, 2.5 mM glucose, pH 7.4). Subsequently, the cells were incubated at 37° C. for 15 minutes, and added with 0.1% BSA-containing KRP buffer containing 1 mM ouabain.
To measure the transport of K^+ ions caused by the Na/K APTase pump, cultivation was performed for 5-10 minutes using an ^86Rb^+([…], NEN) tracer having high sensitivity to ouabain, and 10-20 μg/ml TCTP was added. Also, a control group to which TCTP had not been added was prepared.

Na/K APTase pump [2] = assay: FACS analysis of intracellular Na+ using a Na-sensitive dye; format: cell-based; details: FACS with Na-sensitive dye, versus control group (Mock); FIG. 1b
Method: To confirm the above results again, FACS analysis was performed using a Na-sensitive dye.

Row | activity of the Na/K APTase pump (ouabain-sensitive 86Rb+ uptake in RBL-2H3 cells, 10-20 ug/ml TCTP against a control without TCTP) (Na/K-ATPase pump) | Substance | activity of the Na/K APTase pump (reduced to) (Na/K APTase pump [1]) | intracellular Na+ concentration (Na/K APTase pump [2])
1 | 53.5% | Translationally controlled tumor protein (TCTP) (from UniProt P13693 1-172) | – | –
2 | – | TCTP: Translationally controlled tumor protein (IgE-dependent histamine-releasing factor), amino acid sequence of SEQ ID NO: 2; cytoplasmic inhibitor of the Na/K-ATPase pump | 53.5% | increased the intracellular Na^+ concentration

— US20080141384A1, “Composition For Screening Anti-Hypertension Drug Comprising Mammal Tctp Gene or Its Protein Product, and Method For Screening Anti-Hypertension Drug Using Said Composition” (EWHA UNIVERSITY INDUSTRY COLLABORATION FOUNDATION, priority 2003, published 2008)
